Values quoted from earlier work, collected in patent US8747898B2, “Controlled release oral dosage form” (Andrx Pharmaceuticals, LLC, priority 1999, dated 2014).
Where a name gives a salt, the structure may show the parent alone.

How the values were obtained:
norepinephrine uptake = conditions: in words
monoamine oxidase = conditions: in words
[1] = in words
[2] = in words; remark: listed apart in the source

terminal T ½ (following single doses) | mean half-life of distributive phase (two-compartment model) | inhibition of monoamine oxidase (monoamine oxidase) | permeability [1] | solubility in water [2] | Compound | blockade of norepinephrine uptake (norepinephrine uptake)
about 14 hours | 3 to 4 h | does not inhibit | – | – | CC(NC(C)(C)C)C(=O)c1cccc(Cl)c1 (stereo not drawn) [bupropion] | weak blocker
– | – | – | high permeability | highly soluble | CC(NC(C)(C)C)C(=O)c1cccc(Cl)c1 (stereo not drawn) [Bupropion hydrochloride, bupropion hydrochloride] | –
